Consider one sequence from patent US9896491B2, “Composition for treatment of multiple sclerosis” (LIFEBIO LABORATORIES LLC, priority 2009, dated 2018).

The subject of test [1] is Experimental Allergic Encephalomyelitis (EAE) in Dark Agouti (DA) Rats. As to the kind of experiment: EAE induced by MBP 63-81 in DA rats: clinical signs score. It is filed as in vivo. As to the method:
Female Dark Agouti (DA) Rats, 8-9 weeks of age, about 110-145 g of weight were used as test animals.
For induction of Experimental Allergic Encephalomyelitis (EAE), rats were injected intradermally at the base of the tail with a total volume of 200 μl of inoculum containing 50 μg of MBP 63-81 (ANASPEC), in saline mixed (1:1) with Complete Freund Adjuvant, (IFA, Sigma), and 1 mg killed M. tuberculosis strain (strain H37 RA; Difco Laboratories, Detroit, Mich.). Beginning 24 hours after EAE induction the rats were followed up daily. On day 9 after the after EAE induction more than 50% of the rats developed signs of paralysis. The animals with multiple sclerosis signs were separated into 10 groups for beginning of treatment. Prior to treatment, blood was collected from 2 rats from each group. At day 9 and 11 after EAE induction, 90% of rats developed signs of EAE.
9-11 days after EAE induction the animals were divided into 9 groups (5-6 rats in each). Each group of rats was treated subcutaneously once daily with different claimed oligopeptide or theirs combinations (equimolar mix) (150 μg) or doses of positive control item (Glatiramer acetate, Copaxone, Teva) or negative control item (0.9% Sodium chloride solution), during 6 days as follows:
Copaxone, claimed oligopeptide and combinations thereof (Mechanical mix) were diluted with 0.9% Sodium chloride to a concentration of 450 μg/ml. Volume of 0.33 ml (150 μg/rat/day) was injected SC during 6 days.
After 6 days of the injections cycle the animals were maintained and followed up till day 28th post EAE induction. Clinical signs score was performed daily during study periods. Animals were observed individually during all study periods. In cases of extended observation period clinical signs were recorded once daily. Observations included changes in the fur, eyes, respiratory rate, vocalization, paralysis, activity and behavior pattern. Score of paralysis signs related to MS of each animal was done daily (during all study periods).
Score gradation was as follows: 0—Normal; 1—Tail weakness; 2—Hind leg weakness or paralysis; 3—Hind leg paralysis, dragging hind limbs; 4—Complete paralysis, unable to move; 5—Death.

The subject of test [2] is Experimental MS (Theiler's Virus Infection) in SJL mice. As to the kind of experiment: Experimental MS (Theiler's Virus Infection): disease manifestation and MDS score. The class given is in vivo. The note with it: 20 μg of each oligopeptide daily subcutaneous, days 14-24. Here is the method: (§1) The BeAn strain of TMEV used in this study was generated and propagated in BHK-21 cells grown in Dulbecco's modified Eagle's medium supplemented with 7.5% donor calf serum. For i.c. infection, 30 μl of virus solution (0.2×10^6 to 6×10^6 PFU) was injected into the right cerebral hemisphere of 6- to 8-week-old SJL mice (8 animals per group) anesthetized with isoflurane. Clinical symptoms (MDS score) of disease were assessed weekly on the following grading scale: grade 0, no clinical signs; grade 1, mild waddling gait or flaccid tail; grade 2, severe waddling gait; grade 3, moderate hind limb paresis; and grade 4, severe hind limb paralysis. Serum samples collected from animals were quantified for ESAMBPCAA mediated MBP hydrolysis as specified in Example 1
(§2) At day 14 following infection mice were divided into 6 groups ([…]) and treated during 10 days (days 14-24) according following schedule: […]

Test [3] deals with ESAMBPCAA
In words: ESAMBPCAA mediated MBP hydrolysis in serum of treated EAE DA rats. The class given is in vivo. The note with it: days 8-12; for rates of MBP-specific auto antibody mediated hydrolysis: median for 6 animals.

For test [4], the system named is Experimental Allergic Encephalomyelitis (EAE) in DA rats. In words: MDS score in EAE DA rats. It is filed as in vivo. To be noted: intranasal, days 8-12; FIG. 4; dose-dependent for SEQ ID NO: 2.
For test [5], the system named is ESAMBPCAA
In words: ESAMBPCAA mediated MBP hydrolysis in serum samples of progressive MS patients in presence of test substances. The class given is biochemical, human. The note with it: for MBP-specific auto antibody mediated hydrolysis: test substance 100 nM. Here is the method:
(§3) MBP hydrolysis by anti MBP auto antibodies was assayed as follows: Purified antibodies (0.1-1 μg) were incubated at 37° C. for 14 h in the final volume of 12.5 μl PBS, 0.02% NaN3 containing 1-2 μg of MBP. The samples were mixed with Laemmli's buffer. The extent of MBP degradation was visualized by SDS-PAGE in Tris-glycine and Tricine buffer systems. For quantitative MBP degradation assay, MBP (10 μM) was incubated at 37° C. with antibodies (60 nM) in 0.1 ml of PBS, 0.02% NaN3 for 12 h. The reaction was stopped by adding 10% TFA up to pH 2.5. The samples were further chromatographed on column C4 4.0/150 (Waters). The amount of non-cleaved MBP was calculated by absorbance monitoring at 280 nm.
Serum samples collected from 5 patients suffering from progressive MS were quantified for ESAMBPCAA mediated MBP hydrolysis as specified in Example 1 in presence of following substances: […]

Test [6] has as its system ESAMBPCAA
In words: Inhibition of ESAMBPCAA mediated MBP hydrolysis by synthetic oligopeptides of MBP fragment 43-68. The class given is biochemical, human. The note with it: antibodies 30 nM, MBP 4 mkM, 16 h at 37° C.; FIG. 3. Here is the method:
as §3
The oligopeptides were assayed for their potency to inhibit ESAMBPCAA mediated MBP hydrolysis using ESAMBPCAA collected from progressive MS Patient as specified in Example 1. Different concentrations of test peptides were mixed with both antibodies (30 nM) and MBP (4 mkM) in TBS with_0.1% NaN3_and 10 mM CaCl2. The samples were incubated for 16 h at 37° C. and analyzed on 15% SDS_PAGE. The gels were stained by Coomassie and analyzed by densitometry with TOTALLAB 2.01 software (Nonlinear Dynamics, Ltd., Newcastle upon Tyne, U.K.). […] Shortening of oligopeptide lengths to less than 6 amino acids lead to complete lack of ESAMBPCAA inhibitory activity.

Test [7] concerns ESAMBPCAA
In words: ESAMBPCAA mediated MBP hydrolysis in serum of treated TMEV-infected SJL mice. It is filed as in vivo. The note with it: 20 μg of each oligopeptide daily subcutaneous, days 14-24. As to the method:
as §3, §1, §2

For GGDRGAPKRGSGKDSHH [SEQ ID NO: 2], in test [1] (150 μg/rat/day SC during 6 days), the “suppression of EAE clinical signs” value is “most efficiently suppressed”. In addition, the “Clinical signs score on day 23 after induction (mean)” value in test [1] (150 μg/rat/day SC during 6 days from day 9-11 after EAE induction, score 0-5) is reported as 0.5. Moreover, the “disease-preventive (prophylactic) activity” value in test [2] is recorded as “disease-preventive (prophylactic) activity”. In addition, the “% Animals affected with disease at day 100” value in test [2] (30 mice per group) is given as 19(30) %. The “suppression of MDS score” value in test [2] (FIG. 5) and in test [4] was “most efficiently suppressed” each time. In addition, the “rates of MBP-specific auto antibody mediated hydrolysis” value was 43.1 ± 6.4 pmol/min/nmol in test [3] (Day 8 (start of treatment), 50 μg daily intranasal); 42.8 ± 5.5 pmol/min/nmol in test [3] (Day 8 (start of treatment), 120 μg daily intranasal); 35.6 ± 4.9 pmol/min/nmol in test [3] (Day 16, 50 μg daily intranasal); 17.3 ± 5.4 pmol/min/nmol in test [3] (Day 16, 120 μg daily intranasal); 46.3 ± 2.9 pmol/min/nmol in test [3] (Day 24, 50 μg daily intranasal); 15.1 ± 3.9 pmol/min/nmol in test [3] (Day 24, 120 μg daily intranasal). The “suppression of MBP-specific auto antibody mediated hydrolysis” value is recorded as “most efficiently suppressed” in test [3] (intranasal, dose-dependent for SEQ ID NO: 2) and “most efficiently suppressed” in test [7]. Moreover, in test [5] (100 nM, summary of Table 3), the “suppressive effect on MBP-specific auto antibody mediated hydrolysis” value is recorded as “potent suppressive effect”. The “MBP-specific auto antibody mediated hydrolysis” value in test [5] (Patient 1) was determined as 11.2 ± 3.5 pmol/min/nmol; in test [5] (Patient 2), 17.3 ± 4.1 pmol/min/nmol; in test [5] (Patient 3), 14.4 ± 2.2 pmol/min/nmol; in test [5] (Patient 4), 14.5 ± 4.4 pmol/min/nmol; in test [5] (Patient 5) it was 16.9 ± 7.3 pmol/min/nmol. The “inhibition of ESAMBPCAA activity (ESAMBPCAA mediated MBP hydrolysis)” value in test [6] is given as “most potent inhibitory activity”. The “ESAMBPCAA activity at day 100” value in test [7] was found to be 11.4 ± 3.5 pmol/min/nmol.
